Data from US9695155B2, “Herbicidal substituted pyrimidinyloxy benzene compounds” (E. I. DU PONT DE NEMOURS AND COMPANY, priority 2013, dated 2017).

Tests used:
wheat, winter = assay: Test C postemergence; assay type: in vivo, Triticum aestivum; settings: Triticum aestivum, post-emergence
Procedure, shortened: (§1)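 Sown in loam/sand → sprayed pre-emergence; or grown to 1–4 leaves in peat mix → sprayed post-emergence. Same solvent/surfactant formulation both ways. Greenhouse 13–15 d. Score 0–100 visual.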

velvetleaf [1] = assay: Test A postemergence; assay type: in vivo, Abutilon theophrasti; settings: Abutilon theophrasti, post-emergence, 240 h, 0 to 100 scale where 0 is no effect and 100 is complete control, read-out: Plant response rating, Velvetleaf
Procedure, shortened: (§2)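 Scoring: eye-based comparison with untreated controls, 0 for no effect through 100 for complete control, at about day 10. Treatments: directed soil spray preemergence; foliar spray postemergence on 2–10 cm plants at the one- to two-leaf stage. Medium: loam soil with sand.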

large (Lg) crabgrass [2] = assay: Test A postemergence; assay type: in vivo, Digitaria sanguinalis; settings: Digitaria sanguinalis, post-emergence, 240 h
Procedure, shortened: as §2

chickweed = assay: Test C postemergence; assay type: in vivo, Stellaria media; settings: Stellaria media, post-emergence
Procedure, shortened: as §1

velvetleaf [3] = assay: Test A preemergence; assay type: in vivo, Abutilon theophrasti
Procedure, shortened: as §2

velvetleaf [4] = assay: Test C postemergence; assay type: in vivo, Abutilon theophrasti; settings: Abutilon theophrasti, post-emergence
Procedure, shortened: as §1

soybean = assay: Test C postemergence; assay type: in vivo, Glycine max; settings: Glycine max, post-emergence
Procedure, shortened: as §1

pigweed [5] = assay: Test A postemergence; assay type: in vivo, Amaranthus retroflexus; settings: Amaranthus retroflexus, post-emergence, 0 to 100 scale where 0 is no effect and 100 is complete control, read-out: Plant response rating, Pigweed
Procedure, shortened: as §2

giant foxtail [6] = assay: Test A preemergence; assay type: in vivo, Setaria faberii; settings: Setaria faberi, pre-emergence, 240 h
Procedure, shortened: as §2

giant foxtail [7] = assay: Test A postemergence; assay type: in vivo, Setaria faberii; settings: Setaria faberi, post-emergence, 240 h, 0 to 100 scale where 0 is no effect and 100 is complete control, read-out: Plant response rating, Foxtail, Giant
Procedure, shortened: as §2

large (Lg) crabgrass [8] = assay: Test A preemergence; assay type: in vivo, Digitaria sanguinalis; settings: Digitaria sanguinalis, pre-emergence, 240 h
Procedure, shortened: as §2

ragweed = assay: Test C postemergence; assay type: in vivo, Ambrosia elatior; settings: Ambrosia artemisiifolia, post-emergence
Procedure, shortened: as §1

pigweed [9] = assay: Test A preemergence; assay type: in vivo, Amaranthus retroflexus; settings: Amaranthus retroflexus, pre-emergence
Procedure, shortened: as §2

giant foxtail [10] = assay: Test C postemergence; assay type: in vivo, Setaria faberii; settings: Setaria faberi, post-emergence
Procedure, shortened: as §1

wild oat = assay: Test C postemergence; assay type: in vivo, Avena fatua; settings: Avena fatua, post-emergence
Procedure, shortened: as §1

[11] = 125 g ai/ha, 0 to 100 scale where 0 is no effect and 100 is complete control, read-out: Plant response rating, Crabgrass, Large

## N#Cc1cccc(Oc2ncc(F)cn2)c1-n1cc(C(F)(F)F)cn1 [Compound 79, 3-[(5-fluoro-2-pyrimidinyl)oxy]-2-[4-(trifluoromethyl)-1H-pyrazol-1-yl]benzonitrile]
wheat, winter; 125 g ai/ha, postemergence, read-out: Plant response rating (0 to 100), Wheat
  plant injury at 125 g/ha: 5%
wheat, winter; 250 g ai/ha, postemergence, read-out: Plant response rating (0 to 100), Wheat
  plant injury at 250 g/ha: 35%
wheat, winter; Postemergence, 31 g ai/ha, scale 0 to 100 (0 no effect, 100 complete control), 13 to 15 days, read-out: Plant response rating, Wheat
  plant injury at 31 g/ha: 0%
wheat, winter; Postemergence, 62 g ai/ha, scale 0 to 100 (0 no effect, 100 complete control), read-out: Plant response rating, Wheat
  plant injury at 62 g/ha: 5%
Velvetleaf [1]; 125 g ai/ha
  pest or weed control at 125 g/ha: 100%
Velvetleaf [1]; 500 g ai/ha
  pest or weed control at 500 g/ha: 100%
Large (Lg) crabgrass [2]; [11]
  pest or weed control at 125 g/ha: 100%
Large (Lg) crabgrass [2]; 500 g ai/ha, 0 to 100 scale, 0 no effect, 100 complete control, read-out: Plant response rating Crabgrass, Large
  pest or weed control at 500 g/ha: 100%
chickweed; 125 g ai/ha, postemergence, read-out: Plant response rating (0 to 100), Chickweed
  pest or weed control at 125 g/ha: 90%
chickweed; 250 g ai/ha, postemergence, read-out: Plant response rating (0 to 100), Chickweed
  pest or weed control at 250 g/ha: 95%
chickweed; Postemergence, 31 g ai/ha, scale 0 to 100 (0 no effect, 100 complete control), 13 to 15 days, read-out: Plant response rating, Chickweed
  pest or weed control at 31 g/ha: 50%
chickweed; Postemergence, 62 g ai/ha, scale 0 to 100 (0 no effect, 100 complete control), read-out: Plant response rating, Chickweed
  pest or weed control at 62 g/ha: 65%
Velvetleaf [3]; 125 g ai/ha, 0 to 100 scale where 0 is no effect and 100 is complete control
  Plant response rating, Velvetleaf: 100
Velvetleaf [3]; Abutilon theophrasti, pre-emergence, 240 h, 500 g ai/ha, 0 to 100 scale, 0 no effect, 100 complete control, approx. 10 days, read-out: Velvetleaf plant response rating
  pest or weed control at 500 g/ha: 100%
Velvetleaf [4]; 125 g ai/ha, postemergence, read-out: Plant response rating (0 to 100), Velvetleaf
  pest or weed control at 125 g/ha: 70%
Velvetleaf [4]; 250 g ai/ha, postemergence, read-out: Plant response rating (0 to 100), Velvetleaf
  pest or weed control at 250 g/ha: 90%
Velvetleaf [4]; Postemergence, 31 g ai/ha, scale 0 to 100 (0 no effect, 100 complete control), 13 to 15 days, read-out: Plant response rating, Velvetleaf
  pest or weed control at 31 g/ha: 55%
Velvetleaf [4]; Postemergence, 62 g ai/ha, scale 0 to 100 (0 no effect, 100 complete control), read-out: Plant response rating, Velvetleaf
  pest or weed control at 62 g/ha: 70%
soybean; 125 g ai/ha, postemergence, read-out: Plant response rating (0 to 100), Soybean
  Soybean plant response rating (crop injury, 0-100 scale) at 125 g/ha: 90%
soybean; 250 g ai/ha, postemergence
  Soybean plant response rating (crop injury, 0-100 scale) at 250 g/ha: 95%
soybean; Postemergence, 31 g ai/ha, scale 0 to 100 (0 no effect, 100 complete control), 13 to 15 days
  Soybean plant response rating (crop injury, 0-100 scale) at 31 g/ha: 65%
soybean; Postemergence, 62 g ai/ha, scale 0 to 100 (0 no effect, 100 complete control)
  Soybean plant response rating (crop injury, 0-100 scale) at 62 g/ha: 85%
Pigweed [5]; 125 g ai/ha
  pest or weed control at 125 g/ha: 100%
Pigweed [5]; 500 g ai/ha
  pest or weed control at 500 g/ha: 100%
Giant foxtail [6]; 125 g ai/ha, 0 to 100 scale where 0 is no effect and 100 is complete control, read-out: Plant response rating, Foxtail, Giant
  pest or weed control at 125 g/ha: 100%
Giant foxtail [6]; 500 g ai/ha, 0 to 100 scale, 0 no effect, 100 complete control, approx. 10 days, read-out: Foxtail, Giant plant response rating
  pest or weed control at 500 g/ha: 100%
Giant foxtail [7]; 125 g ai/ha
  pest or weed control at 125 g/ha: 100%
Giant foxtail [7]; 500 g ai/ha
  pest or weed control at 500 g/ha: 100%
Large (Lg) crabgrass [8]; [11]
  pest or weed control at 125 g/ha: 100%
Large (Lg) crabgrass [8]; 500 g ai/ha, 0 to 100 scale, 0 no effect, 100 complete control, approx. 10 days, read-out: Crabgrass, Large plant response rating
  pest or weed control at 500 g/ha: 100%
ragweed; 125 g ai/ha, postemergence, read-out: Plant response rating (0 to 100), Ragweed
  pest or weed control at 125 g/ha: 70%
ragweed; 250 g ai/ha, postemergence, read-out: Plant response rating (0 to 100), Ragweed
  pest or weed control at 250 g/ha: 85%
ragweed; Postemergence, 31 g ai/ha, scale 0 to 100 (0 no effect, 100 complete control), 13 to 15 days, read-out: Plant response rating, Ragweed
  pest or weed control at 31 g/ha: 55%
ragweed; Postemergence, 62 g ai/ha, scale 0 to 100 (0 no effect, 100 complete control), read-out: Plant response rating, Ragweed
  pest or weed control at 62 g/ha: 70%
Pigweed [9]; 125 g ai/ha, 0 to 100 scale where 0 is no effect and 100 is complete control, read-out: Plant response rating, Pigweed
  pest or weed control at 125 g/ha: 100%
Pigweed [9]; 240 h, 500 g ai/ha, 0 to 100 scale, 0 no effect, 100 complete control, approx. 10 days, read-out: Pigweed plant response rating
  pest or weed control at 500 g/ha: 100%
Giant foxtail [10]; 125 g ai/ha, postemergence, read-out: Plant response rating (0 to 100), Foxtail, Giant
  pest or weed control at 125 g/ha: 20%
Giant foxtail [10]; 250 g ai/ha, postemergence, read-out: Plant response rating (0 to 100), Foxtail, Giant
  pest or weed control at 250 g/ha: 65%
Giant foxtail [10]; Postemergence, 31 g ai/ha, scale 0 to 100 (0 no effect, 100 complete control), 13 to 15 days, read-out: Plant response rating, Foxtail, Giant
  pest or weed control at 31 g/ha: 10%
Giant foxtail [10]; Postemergence, 62 g ai/ha, scale 0 to 100 (0 no effect, 100 complete control), read-out: Plant response rating, Foxtail, Giant
  pest or weed control at 62 g/ha: 10%
Wild oat; 125 g ai/ha, postemergence, read-out: Plant response rating (0 to 100), Oat, Wild
  pest or weed control at 125 g/ha: 20%
Wild oat; 250 g ai/ha, postemergence, read-out: Plant response rating (0 to 100), Oat, Wild
  pest or weed control at 250 g/ha: 50%
Wild oat; Postemergence, 31 g ai/ha, scale 0 to 100 (0 no effect, 100 complete control), 13 to 15 days, read-out: Plant response rating, Oat, Wild
  pest or weed control at 31 g/ha: 10%
Wild oat; Postemergence, 62 g ai/ha, scale 0 to 100 (0 no effect, 100 complete control), read-out: Plant response rating, Oat, Wild
  pest or weed control at 62 g/ha: 15%
